Patent US8431593B2, “Heteroaryl amide derivatives” (H. Lundbeck A/S, priority 2006, dated 2013)

Target: T1, P2X7 receptor (Homo sapiens, UniProt Q99572)
T1 construct: host or cells: SH-SY5Y
T1 sequence (Q99572 1-595): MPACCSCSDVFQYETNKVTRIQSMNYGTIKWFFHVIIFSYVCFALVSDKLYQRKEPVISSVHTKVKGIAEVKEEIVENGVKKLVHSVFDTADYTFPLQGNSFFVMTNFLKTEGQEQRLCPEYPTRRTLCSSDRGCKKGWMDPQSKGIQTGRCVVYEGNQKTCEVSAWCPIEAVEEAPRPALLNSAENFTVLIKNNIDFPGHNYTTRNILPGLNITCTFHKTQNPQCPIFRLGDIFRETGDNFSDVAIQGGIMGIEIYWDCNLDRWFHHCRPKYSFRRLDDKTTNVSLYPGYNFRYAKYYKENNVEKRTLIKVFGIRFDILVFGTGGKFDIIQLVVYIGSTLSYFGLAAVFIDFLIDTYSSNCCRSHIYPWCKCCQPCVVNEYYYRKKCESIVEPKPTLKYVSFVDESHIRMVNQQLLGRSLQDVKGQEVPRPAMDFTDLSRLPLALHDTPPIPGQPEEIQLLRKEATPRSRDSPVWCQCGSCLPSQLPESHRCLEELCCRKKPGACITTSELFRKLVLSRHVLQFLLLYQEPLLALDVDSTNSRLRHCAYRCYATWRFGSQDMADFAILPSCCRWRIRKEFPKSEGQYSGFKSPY
Test: P2X7 calcium mobilization assay, high throughput, antagonist activity (Example 4A)
Type: cell-based
Details: not given
Outline: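 100,000 cells/well, plated day -1. Dye 1 h → rinse → compound 1 h, RT → FLIPR^TETRA Ca2+ mobilization. Max RFU minus mean negative control (no agonist); mean agonist-well max as positive control.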

SMILES	IC50 [nM]
O=C(NCC12CC3CC(CC(C3)C1)C2)c1cccc2nc(CO)cn12 [Compound 3, N-(adamantan-1-ylmethyl)-2-(hydroxymethyl)imi-dazo[1,2-a]pyridine-5-carboxamide]	< 2000
O=C(O)Cc1cn2c(C(=O)NCC34CC5CC(CC(C5)C3)C4)cccc2n1 [Compound 16, {5-[(adamantan-1-ylmethyl)carbamoyl]imi-dazo[1,2-a]pyridin-2-yl}acetic acid]	< 2000

Same assay, conditions: 50% decrease in the fluorescence response of cells exposed to 80 μM 2′(3′)-O-(4-benzoyl-benzoyl)adenosine 5′-triphosphate; Example 4A; read-out: IC50

SMILES	IC50 [nM]
N#CCc1cn2c(C(=O)NCC34CC5CC(CC(C5)C3)C4)cccc2n1 [Compound 598, N-(adamantan-1-ylmethyl)-2-(cyanomethyl)imidazo [1,2-a]pyridine-5-carboxamide]	< 2000
CC1(C)[C@H]2CC[C@@H](CNC(=O)c3cccc4nc(C(=O)NC5(CO)CCCC5)cn34)[C@@H]1C2 [Compound 518, 5-N-{[(1S,2R,5S)-6,6-dimethylbicyclo[3.1.1]hept-2-yl]methyl}-2-N-[1-(hydroxymethyl)cyclopentyl] imidazo[1,2-a]pyridine-2,5-dicarboxamide]	< 2000
CC(C)[C@H]1CN(C(=O)c2cn3c(C(=O)NCC45CC6CC(CC(C6)C4)C5)cccc3n2)CCN1 [Compound 615, N-(adamantan-1-ylmethyl)-2-{[(3S)-3-isopropylpiperazin-1-yl]carbonyl}imidazo[1,2-a]pyridine-5-carboxamide]	< 2000
C[C@H]1CN(C(=O)c2cn3c(C(=O)NCC45CC6CC(CC(C6)C4)C5)cccc3n2)CCN1 [Compound 616, N-(adamantan-1-ylmethyl)-2-{[(3S)-3-methylpiperazin-1-yl]carbonyl}imidazo[1,2-a]pyridine-5-carboxamide]	< 2000
COCCN(C)C(=O)c1cn2c(C(=O)NC[C@@H]3CC[C@H]4C[C@@H]3C4(C)C)cccc2n1 [Compound 466, 5-N-{[(1S,2R,5S)-6,6-dimethylbicyclo[3.1.1]hept-2-yl]methyl}-2-N-(2-methoxyethyl)-2-N-methylimidazo[1,2-a]pyridine-2,5-dicarboxamide]	< 2000

Same assay, conditions: 50% decrease in the fluorescence response of cells exposed to 80 μM of 2′(3′)-O-(4-benzoyl-benzoyl)adenosine 5′-triphosphate; Example 4A; read-out: IC50

SMILES	IC50 [nM]
O=C(NCC12CC3CC(CC(C3)C1)C2)c1cccc2nc(C(CC(=O)N3CCOCC3)C(=O)O)cn12 (stereo not shown) [Compound 803, 2-{5-[(adamantan-1-ylmethyl)carbamoyl]imidazo[1,2-a]pyridin-2-yl}-4-morpholin-4-yl-4-oxobutanoic acid]	< 2000
CC(C)(O)C1CCCCN1C(=O)c1cn2c(C(=O)NCC34CC5CC(CC(C5)C3)C4)cccc2n1 (stereo not shown) [Compound 702, N-(adamantan-1-ylmethyl)-2-{[2-(1-hydroxy-1-methylethyl)piperidin-1-yl]carbonyl}imidazo[1,2-a]pyridine-5-carboxamide]	< 2000
CC(C)N(CCNC(=O)c1cn2c(C(=O)NCC34CC5CC(CC(C5)C3)C4)cccc2n1)C(C)C [Compound 652, 5-N-(adamantan-1-ylmethyl)-2-N-[2-(diisopropylamino)ethyl]imidazo [1,2-a] pyridine-2,5-dicarboxamide]	< 2000
O=C(Cc1cn2c(C(=O)NCC34CC5CC(CC(C5)C3)C4)cccc2n1)NC1CN2CCC1CC2 (stereo not shown) [Compound 684, N-(adamantan-1-ylmethyl)-2-[2-(1-azabicyclo[2.2.2]oct-3-ylamino)-2-oxoethyl]imidazo[1,2-a]pyridine-5-carboxamide]	< 2000
NC1CCN(C(=O)c2cn3c(C(=O)NCC45CC6CC(CC(C6)C4)C5)cccc3n2)CC1 [Compound 626, N-(adamantan-1-ylmethyl)-2-[(4-aminopiperidin-1-yl)carbonyl]imidazo[1,2-a]pyridine-5-carboxamide]	< 2000
CC(C)(C)OC(=O)N[C@@H]1CCN(Cc2cn3c(C(=O)NCC(CC4CCCCC4)c4ccccc4)cccc3n2)C1 (stereo partly shown) [Compound 785, tert-butyl [1-({5-[(3-cyclohexyl-2-phenylpropyl)carbamoyl]imidazo[1,2-a]pyridin-2-yl}methyl)pyrrolidin-3-yl]carbamate]	< 2000
CCNC(=O)CC1(c2cn3c(C(=O)NCC45CC6CC(CC(C6)C4)C5)cccc3n2)CC(=O)N(CC)C1=O (stereo not shown) [Compound 808, N-(adamantan-1-ylmethyl)-2-{1-ethyl-3-[2-(ethylamino)-2-oxoethyl]-2,5-dioxopyrrolidin-3-yl}imidazo[1,2-a]pyridine-5-carboxamide]	< 2000

Same assay, conditions: 50% decrease in the fluorescence response of cells exposed to 80 μM of 2′(3′)-O-(4-benzoyl-benzoyl)adenosine 5′-triphosphate; determined as in Example 4A; read-out: IC50

SMILES	IC50 [nM]
O=C(Cc1cn2c(C(=O)NCC34CC5CC(CC(C5)C3)C4)cccc2n1)N[C@H]1CCCNC1 [Compound 852, N-(adamantan-1-ylmethyl)-2-{2-oxo-2-[(3S)-piperidin-3-ylamino]ethyl} imidazo [1,2-a]pyridine-5-carboxamide]	< 2000
O=C(Cc1cn2c(C(=O)NCC34CC5CC(CC(C5)C3)C4)cccc2n1)N[C@H]1CCNC1 [Compound 911, N-(adamantan-1-ylmethyl)-2-{2-oxo-2-[(3S)-pyrrolidin-3-ylamino]ethyl} imidazo [1,2-a]pyridine-5-carboxamide]	< 2000
CCOC(=O)C(Cc1ccccc1)c1cn2c(C(=O)NCC(CC(C)C)c3ccc(Cl)cc3)cccc2n1 (stereo not shown) [Compound 931, ethyl 2-(5-{[2-(4-chlorophenyl)-4-methylpentyl]carbamoyl}imidazo[1,2-a]pyridin-2-yl)-3-phenylpropanoate]	< 2000

Same assay, conditions: P2X7 calcium mobilization, Example 4A; 50% decrease in the fluorescence response of cells exposed to 80 μM of (2′(3′)-O-(4-benzoyl-benzoyl)adenosine 5′-triphosephate); read-out: IC50

SMILES	IC50 [nM]
CC(C)CC(CNC(=O)c1cccc2nc(CCN3CCCC3)cn12)c1ccc(C(F)(F)F)cc1 (stereo not shown) [Compound 1042, N-{4-methyl-2-[4-(Irifluoromethyl)phenyl]pentyl}-2-(2-pyrrolidin-1-ylethyl) imidazo[1,2-a]pyridine-5-carboxamide]	< 2000

Same assay, conditions: SH-SY5Y cells; 50% decrease in fluorescence response to 80 μM BzATP; read-out: IC50

SMILES	IC50 [nM]
CCC(COC)NC(=O)Cc1cn2c(C(=O)NCC34CC5CC(CC(C5)C3)C4)cccc2n1 (stereo not shown) [Compound 160, N-(adamantan-1-ylmethyl)-2-(2-{[1-(methoxymethyl)pro-pyl]amino}-2-oxoethyl)imidazo[1,2-a]pyridine-5-carboxamide]	< 2000
O=C(NCC12CC3CC(CC(C3)C1)C2)c1cccc2nc(C(=O)N3CCC(N4CCOCC4)CC3)cn12 [Compound 101, N-(adamantan-1-ylmethyl)-2-[(4-morpholin-4-ylpiperidin-1-yl)carbonyl]imidazo[1,2-a]pyridine-5-carboxamide]	< 2000
Nc1ccn(Cc2cn3c(C(=O)NCC45CC6CC(CC(C6)C4)C5)cccc3n2)n1 [Compound 208, N-(adamantan-1-ylmethyl)-2-[(3-amino-1H-pyrazol-1-yl)methyl]imidazo[1,2-a]pyridine-5-carboxamide]	< 2000
CN(CCNS(C)(=O)=O)C(=O)c1cn2c(C(=O)NCC34CC5CC(CC(C5)C3)C4)cccc2n1 [Compound 98, 5-N-(adamantan-1-ylmethyl)--methyl--{2-[(methyl-sulfonyl)amino]eth-yl)imidazo[1,2-a]pyridine-2,5-dicarboxamide]	< 2000
CC(O)CNC(=O)Cc1cn2c(C(=O)NCC34CC5CC(CC(C5)C3)C4)cccc2n1 (stereo not shown) [Compound 33, N-(adamantan-1-ylmethyl)-2-{2-[(2-hydroxypropyl)amino]-2-oxoethyl}imidazo[1,2-a]pyridine-5-carboxamide]	< 2000
CC(O)CCNC(=O)Cc1cn2c(C(=O)NCC34CC5CC(CC(C5)C3)C4)cccc2n1 (stereo not shown) [Compound 31, N-(adamantan-1-ylmethyl)-2-{2-[(3-hydroxybutyl)amino]-2-oxoethyl}imidazo[1,2-a]pyridine-5-carboxamide]	< 2000
COCC1CCN(C(=O)Cc2cn3c(C(=O)NCC45CC6CC(CC(C6)C4)C5)cccc3n2)CC1 [Compound 34, N-(adamantan-1-ylmethyl)-2-{2-[4-(methoxy-methyl)piperidin-1-yl]-2-oxoethyl}imidazo[1,2-a]pyridine-5-carboxamide]	< 2000
CN(CCO)C(=O)Cc1cn2c(C(=O)NCC34CC5CC(CC(C5)C3)C4)cccc2n1 [Compound 51, N-(adamantan-1-ylmethyl)-2-{2-[(2-hydroxy-ethyl)(methyl)amino]-2-oxoethyl}imidazo[1,2-a]pyridine-5-carboxamide]	< 2000

Same assay, conditions: fluorescence response of cells exposed to 80 μM 2′(3′)-O-(4-benzoyl-benzoyl)adenosine 5′-triphosphate; Example 4A; read-out: IC50

SMILES	IC50 [nM]
CCN(CCO)C(=O)c1cn2c(NC(=O)CC34CC5CC(CC(C5)C3)C4)cccc2n1 [Compound 414, 5-[(adamantan-1-ylacetyl)amino]-N-ethyl-N-(2-hydroxyethyl)imidazo [1,2-a]pyridine-2-carboxamide]	< 2000
N[C@@H]1CCN(Cc2cn3c(NC(=O)CC45CC6CC(CC(C6)C4)C5)cccc3n2)C1 [Compound 299, 2-adamantan-1-yl-N-(2-{[(3R)-3-aminopyrrolidin-1-yl]methyl}imidazo[1,2-a]pyridin-5-yl)acetamide]	< 2000
